Measurements as given in patent US20170105986A1, “Topical Formulation to Enhance Genital Sensation and Function” (priority 2014, published 2017).

System: genital area of the patient
Test: Short term effect of the topical formulation applied to the genital area, as reported by users
Assay type: in vivo, human
Conditions: for functionality as component of the topical formulation: forms of coQ10 added to the formulation; for somewhat improved sexual function continuing after use: middle-aged male, component of the formula
Description: The following examples are used to show the short term effect of the topical formulation when applied to the genital area of the patient.

COC1=C(OC)C(=O)C(C/C=C(\C)CC/C=C(\C)CC/C=C(\C)CC/C=C(\C)CC/C=C(\C)CC/C=C(\C)CC/C=C(\C)CC/C=C(\C)CC/C=C(\C)CCC=C(C)C)=C(C)C1=O [ubiquinone, reference compound]
functionality as component of the topical formulation: seems not functional

Nc1ncnc2c1ncn2[C@@H]1O[C@H](COP(=O)(O)OP(=O)(O)OP(=O)(O)O)[C@@H](O)[C@H]1O [ATP, adenosine triphosphate]
period for which the effects of the topical formulation are prolonged following administration (ATP included in second core composition): ~12 h
somewhat improved sexual function continuing after use: about 10 hours

NC(=O)c1ccc[n+]([C@@H]2O[C@H](CO)[C@@H](O)[C@H]2O)c1 [nicotinamide ribose, nicotinamide riboside]
somewhat improved sexual function continuing after use: about 10 hours

COc1c(O)c(C)c(C/C=C(\C)CC/C=C(\C)CC/C=C(\C)CC/C=C(\C)CC/C=C(\C)CC/C=C(\C)CC/C=C(\C)CC/C=C(\C)CC/C=C(\C)CCC=C(C)C)c(O)c1OC [ubiquinol, reference compound]
functionality as component of the topical formulation: seems not functional
